Series [1] can be described thus: Toxicity in ip dosed mouse. The note with it: in vivo. In kind it is organism-based.
Series [2] is described as follows: Binding affinity to transmembrane model peptide-1 of domain 4 segment 6 of rat skeletal muscle Nav1.4 by Marquardt and Levenberg algorithm analysis.
Series [3] is described as follows: Binding affinity to transmembrane model peptide-2 of domain 4 segment 6 of rat skeletal muscle Nav1.4 by Marquardt and Levenberg algorithm analysis.

Some results are limits rather than exact numbers.

Usually LD50 stands for the dose at which mortality reaches 50%. In general, Kd refers to the free concentration of one partner at which half of the binding sites on the other are occupied at equilibrium, for simple one-to-one binding. The molecule `C[C@H]1CC[C@@H]2N(C1)C[C@@H]1[C@](O)([C@@H](O)C[C@@]3(O)[C@@H]4CC[C@@H]5[C@]6(O)O[C@@]4(C[C@@]13O)[C@@]5(C)CC[C@@H]6O)[C@]2(C)O` [VERACEVINE] gave an LD50 in series [1] of more than 100 mg/kg. The Kd in series [2] was 890 µM.
`COc1ccc(C(=O)O[C@H]2CC[C@@]3(C)[C@@H]4CC[C@H]5[C@]6(O)C[C@H](O)[C@@]7(O)[C@@H](CN8C[C@@H](C)CC[C@H]8[C@@]7(C)O)[C@]6(O)C[C@@]53O[C@]24O)cc1OC` [VERATRIDINE]: the LD50 in series [1] amounted to 9 mg/kg. Also, the values for the Kd in series [3] and in series [2] were 490 µM and 1400 µM, respectively.

The record behind these values is ChEMBL document CHEMBL2021763, “Solution NMR analysis of the binding mechanism of DIVS6 model peptides of voltage-gated sodium channels and the lipid soluble alkaloid veratridine” (Bioorg Med Chem, 2012).
